In ChEMBL document CHEMBL1201862, “PubChem BioAssay data set” (2004):
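Cultured in 96-well plates, cells were exposed to test compound for 48 hours across five concentrations. GI50 marks 50% less growth.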 Active and inactive are the calls of the source. Rule as the data show it: active = GI50 up to about 1.1 µM and inactive = higher.

Columns and labels:
Test in all cases: NCI tumour cell line growth inhibition, 48 h
UACC-257 = tested on: UACC-257
A498 = tested on: A498
SNB-19 = tested on: SNB-19
SK-MEL-28 = tested on: SK-MEL-28
NCI-H460 = tested on: NCI-H460
MOLT-4 = tested on: MOLT-4
786-0 = tested on: 786-0
SK-MEL-2 = tested on: SK-MEL-2
NCI-H226 = tested on: NCI-H226
K562 = tested on: K562
KM12 = tested on: KM12
HOP-62 = tested on: HOP-62
OVCAR-5 = tested on: OVCAR-5
LXFL 529 = tested on: LXFL 529
NCI-H23 = tested on: NCI-H23
HOP-92 = tested on: HOP-92
SNB-75 = tested on: SNB-75
Malme-3M = tested on: Malme-3M
HT-29 = tested on: HT-29
RXF 393 = tested on: RXF 393
SR = tested on: SR
SF-539 = tested on: SF-539
OVCAR-8 = tested on: OVCAR-8
SW-620 = tested on: SW-620
SK-OV-3 = tested on: SK-OV-3
A549 = tested on: A549
UACC-62 = tested on: UACC-62
OVCAR-3 = tested on: OVCAR-3
SF-268 = tested on: SF-268
M14 = tested on: M14
SK-MEL-5 = tested on: SK-MEL-5
DMS-114 = tested on: DMS-114
HCC 2998 = tested on: HCC 2998
SF-295 = tested on: SF-295
DMS-273 = tested on: DMS-273
M19-MEL = tested on: M19-MEL
HL-60 = tested on: HL-60
XF498 = tested on: XF498
NCI-H522 = tested on: NCI-H522
OVCAR-4 = tested on: OVCAR-4
SNB-78 = tested on: SNB-78
LOX IMVI = tested on: LOX IMVI
U-251 = tested on: U-251
UO-31 = tested on: UO-31
CCRF-CEM = tested on: CCRF-CEM
CAKI-1 = tested on: CAKI-1
DLD-1 = tested on: DLD-1
HCT-116 = tested on: HCT-116
ACHN = tested on: ACHN
RPMI-8226 = tested on: RPMI-8226
SN12C = tested on: SN12C
RXF 631 = tested on: RXF 631
TK-10 = tested on: TK-10
EKVX = tested on: EKVX
HCT-15 = tested on: HCT-15
HOP-18 = tested on: HOP-18
KM-20L2 = tested on: KM-20L2
COLO 205 = tested on: COLO 205
IGROV-1 = tested on: IGROV-1

`C=C1c2[nH]c3ccccc3c2CC(C(=O)O)N1C(O)c1ccc(S(=O)(=O)O)cc1` (stereo unspecified) was tested, and the GI50 (UACC-257) was > 100 µM (inactive), the GI50 (A498) was > 100 µM (inactive) and the GI50 (SNB-19) was > 100 µM (inactive). The GI50 (SK-MEL-28) was > 100 µM (inactive), the GI50 (NCI-H460) was > 100 µM (inactive) and the GI50 (MOLT-4) was > 100 µM (inactive). The GI50 (786-0) was > 100 µM (inactive), the GI50 (SK-MEL-2) was > 100 µM (inactive) and the GI50 (NCI-H226) was 42.9 µM (inactive). For the same compound, the GI50 (K562) was > 100 µM (inactive), the GI50 (KM12) was > 100 µM (inactive) and the GI50 (HOP-62) was > 100 µM (inactive). The GI50 (OVCAR-5) was > 100 µM (inactive), the GI50 (LXFL 529) was > 100 µM (inactive) and the GI50 (NCI-H23) was > 100 µM (inactive). For the same compound, the GI50 (HOP-92) was 22.1 µM (inactive), the GI50 (SNB-75) was 65.6 µM (inactive) and the GI50 (Malme-3M) was > 100 µM (inactive). For the same compound, the GI50 (HT-29) was > 100 µM (inactive), the GI50 (RXF 393) was > 100 µM (inactive) and the GI50 (SR) was > 100 µM (inactive). For the same compound, the GI50 (SF-539) was > 100 µM (inactive), the GI50 (OVCAR-8) was > 100 µM (inactive) and the GI50 (SW-620) was > 100 µM (inactive). For the same compound, the GI50 (SK-OV-3) was > 100 µM (inactive), the GI50 (A549) was > 100 µM (inactive) and the GI50 (UACC-62) was > 100 µM (inactive). The GI50 (OVCAR-3) was > 100 µM (inactive), the GI50 (SF-268) was > 100 µM (inactive) and the GI50 (M14) was > 100 µM (inactive). The GI50 (SK-MEL-5) was > 100 µM (inactive), the GI50 (DMS-114) was > 100 µM (inactive) and the GI50 (HCC 2998) was > 100 µM (inactive). For the same compound, the GI50 (SF-295) was > 100 µM (inactive), the GI50 (DMS-273) was > 100 µM (inactive) and the GI50 (M19-MEL) was > 100 µM (inactive). For the same compound, the GI50 (HL-60) was > 100 µM (inactive), the GI50 (XF498) was > 100 µM (inactive) and the GI50 (NCI-H522) was > 100 µM (inactive). For the same compound, the GI50 (OVCAR-4) was > 100 µM (inactive), the GI50 (SNB-78) was > 100 µM (inactive) and the GI50 (LOX IMVI) was > 100 µM (inactive). The GI50 (U-251) was > 100 µM (inactive), the GI50 (UO-31) was > 100 µM (inactive) and the GI50 (CCRF-CEM) was > 100 µM (inactive). For the same compound, the GI50 (CAKI-1) was > 100 µM (inactive), the GI50 (DLD-1) was > 100 µM (inactive) and the GI50 (HCT-116) was > 100 µM (inactive). For the same compound, the GI50 (ACHN) was > 100 µM (inactive), the GI50 (RPMI-8226) was > 100 µM (inactive) and the GI50 (SN12C) was > 100 µM (inactive). The GI50 (RXF 631) was > 100 µM (inactive) and the GI50 (TK-10) was > 100 µM (inactive).

For `CC1=C(C(=O)NCc2ccccc2)C(c2ccccc2C)C(C(=O)NCc2ccccc2)=C(C)N1`, the GI50 (UACC-257) was 10.7 µM (inactive), the GI50 (A498) was 44.3 µM (inactive) and the GI50 (SNB-19) was 35.6 µM (inactive). For the same compound, the GI50 (SK-MEL-28) was 27.6 µM (inactive), the GI50 (NCI-H460) was 19.5 µM (inactive) and the GI50 (MOLT-4) was 27.1 µM (inactive). For the same compound, the GI50 (786-0) was 25.1 µM (inactive), the GI50 (SK-MEL-2) was 18.5 µM (inactive) and the GI50 (NCI-H226) was 30.7 µM (inactive). The GI50 (K562) was 38.5 µM (inactive), the GI50 (KM12) was 24.8 µM (inactive) and the GI50 (HOP-62) was 29.9 µM (inactive). For the same compound, the GI50 (OVCAR-5) was 35.9 µM (inactive), the GI50 (LXFL 529) was 29.5 µM (inactive) and the GI50 (NCI-H23) was 33.1 µM (inactive). For the same compound, the GI50 (EKVX) was 58.7 µM (inactive), the GI50 (HOP-92) was 39 µM (inactive) and the GI50 (SNB-75) was > 43.8 µM (inactive). For the same compound, the GI50 (Malme-3M) was 72.6 µM (inactive), the GI50 (HT-29) was 27.2 µM (inactive) and the GI50 (RXF 393) was 23.7 µM (inactive). For the same compound, the GI50 (SR) was 24.5 µM (inactive), the GI50 (SF-539) was 24.6 µM (inactive) and the GI50 (OVCAR-8) was 17.9 µM (inactive). For the same compound, the GI50 (SW-620) was 38.8 µM (inactive), the GI50 (SK-OV-3) was 91.2 µM (inactive) and the GI50 (HCT-15) was 17.7 µM. For the same compound, the GI50 (A549) was 49.8 µM (inactive), the GI50 (UACC-62) was 17.2 µM (inactive) and the GI50 (HOP-18) was > 53 µM (inactive). The GI50 (OVCAR-3) was 23.5 µM (inactive), the GI50 (SF-268) was 22.8 µM (inactive) and the GI50 (KM-20L2) was 28.4 µM (inactive). The GI50 (M14) was 20.4 µM (inactive), the GI50 (SK-MEL-5) was 35.5 µM (inactive) and the GI50 (DMS-114) was 29.6 µM (inactive). The GI50 (HCC 2998) was 28.6 µM (inactive), the GI50 (SF-295) was 29.7 µM (inactive) and the GI50 (DMS-273) was 27.5 µM (inactive). For the same compound, the GI50 (M19-MEL) was 33 µM (inactive), the GI50 (HL-60) was 21 µM (inactive) and the GI50 (NCI-H522) was 28.4 µM (inactive). The GI50 (OVCAR-4) was 27.2 µM (inactive), the GI50 (SNB-78) was 33.6 µM (inactive) and the GI50 (LOX IMVI) was 17.7 µM (inactive). For the same compound, the GI50 (U-251) was 24.5 µM (inactive), the GI50 (UO-31) was 42.8 µM (inactive) and the GI50 (CCRF-CEM) was 29.6 µM (inactive). For the same compound, the GI50 (COLO 205) was 38.8 µM (inactive), the GI50 (CAKI-1) was 50.8 µM (inactive) and the GI50 (IGROV-1) was 31.7 µM (inactive). For the same compound, the GI50 (DLD-1) was 20.9 µM (inactive), the GI50 (HCT-116) was 19 µM (inactive) and the GI50 (ACHN) was 20 µM (inactive). For the same compound, the GI50 (RPMI-8226) was 29.9 µM (inactive), the GI50 (SN12C) was 25.5 µM (inactive) and the GI50 (RXF 631) was 42.1 µM (inactive). For the same compound, the GI50 (TK-10) was 41.7 µM (inactive).
